# Counter-ions that a name gives are not always drawn. Like-named read-outs stand apart in the source and are kept apart here.
# What was measured:
# [1] = Plasma and inner ear fluid exposure after single trans-tympanic injection in thermoreversible hydrogel composition (Example 4); format: in vivo, male Wistar rats; conditions: for concentration at 7 days / concentration at 168 h / concentration at 1 h / concentration at 24 h: male, Wistar, other: trans-tympanic injection; for concentration at 7 days: inner ear fluid, read-out: Concentrations in the inner ear fluid at 7 days post injection; for concentration at 7 days / High concentrations rapidly reached in the inner ear fluid / High concentrations rapidly reached in the IEF (molar): trans-tympanic injection; for concentration at 1 h: T0 + 1 hour; for concentration at 24 h: T0 + 24 hours; for High concentrations rapidly reached in the inner ear fluid: summary
# Experimental: Composition 4P and composition 4X as described in example 2 were administered to male Wistar rats (5 animals per active agent and timepoint), as described below.
# At time T0, 30 μL of composition 4P were administered to 15 rats, in a single ear via trans-tympanic injection. The dose of paliroden fumarate that has been administered is thus of 300 μg in one ear of each rat.
# At time T0, 30 μL of composition 4X were administered to 15 other rats, in a single ear via trans-tympanic injection. The dose of xaliproden hydrochloride that has been administered is thus of 150 μg in one ear of each rat.
# For the 15 rats that have received composition 4P and for the 15 rats that have received composition 4X, plasmatic and inner ear expositions were determined via blood and cochlea terminal sampling in order to achieve lithium-heparin plasma and inner ear fluid preparation, at T+1 hour, T+24 hours and T+168 hours. Bioanalytical methods were validated in both matrices (lithium heparin plasma and inner ear fluid) with a range of 0.2 to 815 ng/mL for paliroden (fumarate salt) and 0.38 to 763 ng/mL for xaliproden (hydrochloride salt).
# male Wistar rats = test: ABR/DPOAE assessment, noise-induced permanent hearing loss, immediate trans-tympanic treatment (Example 6); format: in vivo; conditions: T0+28 days, versus traumatized animals untreated or vehicle; treatment 2 hours and 8 days post-noise
# Experimental: Fifty male Wistar rats were selected and distributed to treatment (“traumatized paliroden” group and “traumatized xaliproden” group) and control groups (“sham” group, “traumatized” group and “traumatized vehicle” group), each group comprising at least 9 rats at the end of the study. Randomization was performed using the ABR threshold in the left ear at 16 kHz as a criterium. The “sham” group consists in rats (n=11) that received neither noise exposure nor trans-tympanic injection. The “traumatized” group consists of rats (n=9) that received noise exposure only and no treatment. The “traumatized vehicle” group consists in rats (n=10) that received noise exposure and trans-tympanic injection in both ears of 30 μL of placebo (a composition comprising Poloxamer 407 (7,2% w/w), Poloxamer 188 (8% w/w) and Cremophor EL® (20% w/w) in phosphate buffer pH=7.4, the percentages being expressed relative to the total weight of the composition) between the eardrum and the round window by means of a needle which crosses the eardrum, 4 hours after the start of the noise exposure (i.e. injection of placebo at T0+4 hours, thus 2 hours after the end of the noise exposure) and 8 days post-noise exposure, under isoflurane anesthesia. […]
# [2] = rat inner ear fluid, trans-tympanic 300 μg, thermoreversible hydrogel, read-out: Concentration of paliroden (fumarate salt), IEF, Mean
# [3] = plasma, rat, trans-tympanic 300 μg one ear, suspension in thermoreversible hydrogel, read-out: Concentration of paliroden (fumarate salt), Plasma, Mean
# [4] = rat, suspension in thermoreversible hydrogel
# [5] = rat, thermoreversible hydrogel, approximate conversion
# [6] = plasma, 150 μg in one ear, rat, trans-tympanic 150 μg one ear, suspension in thermoreversible hydrogel, read-out: Concentration of xaliproden (hydrochloride salt), Plasma, Mean
"concentration at 7 days ([1]; 300 μg, rat, thermoreversible hydrogel, approximate conversion) [nM]","concentration at 7 days ([1]; rat, thermoreversible hydrogel) [ng/mL]","concentration at 168 h ([1]; 300 μg in one ear, rat inner ear fluid, trans-tympanic 300 μg, thermoreversible hydrogel, T0 + 168 hours, n = 4, read-out: Concentration of paliroden (fumarate salt), IEF, Mean) [ng/mL]","concentration at 1 h [1, 2] [ng/mL]","concentration at 24 h [1, 2] [ng/mL]","concentration at 168 h ([1]; plasma, 300 μg in one ear, rat, trans-tympanic 300 μg one ear, suspension in thermoreversible hydrogel, T0 + 168 hours, read-out: Concentration of paliroden (fumarate salt), Plasma, Mean) [ng/mL]","concentration at 1 h [1, 3] [ng/mL]","concentration at 24 h [1, 3] [ng/mL]","High concentrations rapidly reached in the inner ear fluid [1, 4]","High concentrations rapidly reached in the IEF (molar) [1, 5]","concentration at 1 h ([1]; 150 μg in one ear, rat inner ear fluid, trans-tympanic 150 μg, thermoreversible hydrogel, n = 4, read-out: Concentration of xaliproden (hydrochloride salt), IEF, Mean) [ng/mL]","concentration at 24 h ([1]; 150 μg in one ear, rat inner ear fluid, trans-tympanic 150 μg, thermoreversible hydrogel, read-out: Concentration of xaliproden (hydrochloride salt), IEF, Mean) [ng/mL]","concentration at 168 h ([1]; 150 μg in one ear, rat inner ear fluid, trans-tympanic 150 μg, thermoreversible hydrogel, T0 + 168 hours, read-out: Concentration of xaliproden (hydrochloride salt), IEF, Mean) [ng/mL]","concentration at 1 h [1, 6] [ng/mL]","concentration at 24 h [1, 6] [ng/mL]","Concentration of xaliproden (hydrochloride salt), Plasma, Mean ([1]; rat, trans-tympanic 150 μg one ear, suspension in thermoreversible hydrogel, T0 + 168 hours)",Compound,"Effect on ABR thresholds, DPOAE amplitudes, ABR Wave I amplitudes (male Wistar rats)"
~1200,~600,687,5490,1370,0.2,1,0.4,approximately 5000 ng/mL,approximately 10 μM,–,–,–,–,–,–,"FC(F)(F)c1cccc(C2=CCN(CCc3ccc(-c4ccccc4)cc3)CC2)c1 [paliroden (fumarate salt), 1-[2-(4-biphenylyl)ethyl]-4-(3-trifluoromethylphenyl)-1,2,3,6-tetrahydropyridine]",did not show effect
–,~100,–,–,–,–,–,–,approximately 5000 ng/mL,approximately 10 μM,5610,108,117,4.9,9.2,BLQ,"FC(F)(F)c1cccc(C2=CCN(CCc3ccc4ccccc4c3)CC2)c1 [xaliproden (hydrochloride salt), 1-[2-(2-naphthyl)ethyl]-4-(3-trifluoromethylphenyl)-1,2,3,6-tetrahydropyridine]",did not show effect

# From patent US20230390273A1, “4-PHENYL-TETRAHYDROPYRIDINE DERIVATIVES FOR TREATING HEARING DISEASES” (CILCARE DEV, priority 2021, published 2023)
